The numbers were not newly measured in patent US12102645B2, “Fluticasone furoate nasal preparation composition” (TOKO YAKUHIN KOGYO CO., LTD., priority 2018, dated 2024), which cites them from elsewhere.

SMILES strings stand for the structures.

Take `C[C@@H]1C[C@H]2[C@@H]3C[C@H](F)C4=CC(=O)C=C[C@]4(C)[C@@]3(F)[C@@H](O)C[C@]2(C)[C@@]1(OC(=O)c1ccco1)C(=O)SCF` [Fluticasone furoate, 6α,9-difluoro-17β-[(fluoromethylsulfanyl)carbonyl]-11β-hydroxy-16α-methyl-3-oxoandrosta-1,4-dien-17α-yl furan-2-carboxylate]: the Solubility in water entry is “very slightly soluble”.
